# Data from patent publication US10897901B2, “Herbicidal composition” (FMC Corporation, priority 2007, dated 2021).
# How the values were obtained:
# Assay type in all cases: in vivo
# [1] = tested on: Yellow Nutsedge (Cyperus esculentus); assay: Example 1 post-emergent turf plot test, nutsedge; settings: 0.57 lb ai/acre
# Procedure: (§1) The experimental design used randomized plots with post-emergent treatment and three replications per test trial. The size of each experimental plot was 4 feet by 6 feet. The application of each test composition was performed with pressurized back-pack sprayers, calibrated to spray 200 gallons per acre. Test compositions containing sulfentrazone (DISMISS™ Turf Herbicide), quniclorac, (FACET® 75 DF herbicide) or a mixture of sulfentrazone and quinclorac in a 1:3 ratio, prepared as described above, were diluted with water to provide the appropriate test rate concentrations.
# (§2) The control of weeds was evaluated in each experimental plot from 7 to 41 days after treatment (DAT) of each test rate. The results, shown as an average of the replications, were compared with results observed in untreated control plots in the same trials.
# [2] = tested on: Smooth Crabgrass (Digitaria ischaemum); assay: Example 1 post-emergent turf plot test, 3 leaf/2 tiller crabgrass; settings: 0.57 lb ai/acre
# Procedure: as §1, §2
# [3] = tested on: yellow nutsedge (Cyperus esculentusi); assay: Example 4 post-emergence greenhouse pot test, nutsedge; settings: 0.25 lb ai/acre
# Procedure: (§3) Test compositions containing sulfentrazone (75 DF formulation), quniclorac, (DRIVE® 75 DF Herbicide) or mixtures of sulfentrazone and quinclorac at ratios of 1:1 to 1:5, were diluted with water to provide the appropriate test rate concentrations. A nonionic surfactant (0.25%) was added to each test solution. The test weeds include crabgrass (Digitaria sp), Chickweed (Stellaria media), Hemp Sesbania (Sesbania exaltata), Kochia (Kochia scoparia), Ivyleaf Morningglory (Ipomoea hederacea), Redroot Pigweed (Amaranthus retroflexus) and yellow nutsedge (Cyperus esculentusi).
# (§4) For post-emergence testing, three disposable 3 inch square pots for each rate of application of each herbicide were filled with a soil, comprised of peat moss, vermiculite, bark ash, pine bark, limestone and a wetting agent, to which 8 to 10 seeds were planted. The pots were placed in a greenhouse and watered daily, thus allowing the seeds to germinate and the foliage to develop for 22 days, 3 months for Kochia.
# (§5) Pots designated for treatment were placed on a conveyor belt and the conveyor belt fed under a spray nozzle mounted about ten inches above the foliage. The spray of herbicidal solution was commenced and once stabilized; the pots were passed under the spray at a speed to receive a coverage equivalent of 30 gallons per acre. The application rates are those shown in Table 4 below for the individual herbicidal solutions and the mixture of sulfentrazone and quinclorac. The post-emergence pots were immediately placed in the green-house and not watered until 24 hours after treatment with the test solution. Thereafter they were regularly watered at ground level. The control of weeds was evaluated in each experimental test from 2 to 20 days after treatment (DAT). The results, shown as an average of the replications, were compared with results observed in untreated control pots in the same tests.
# (§6) Percent control was determined by a method similar to the 0 to 100 rating system disclosed in “Research Methods in Weed Science,” 2nd ed., B. Truelove, Ed.; Southern Weed Science Society; Auburn University, Auburn, Ala., 1977.
# [4] = tested on: White Clover (Trifolium repens); assay: Example 2 post-emergent turf plot test, clover; settings: 0.57 lb ai/acre
# Procedure: as §1, with “quinclorac,” for “quniclorac,”, “one to three” for “1:3”
# (§7) The control of weeds was evaluated in each experimental plot from 1 to 27 days after treatment (DAT) of each test rate. The results, shown as an average of the replications, were compared with results observed in untreated control plots in the same trials.
# [5] = tested on: Field Violet (Viola arvensis); assay: Example 1 post-emergent turf plot test, violet; settings: 0.57 lb ai/acre
# Procedure: as §1, §2
# crabgrass (Digitaria sp) = assay: Example 4 post-emergence greenhouse pot test, crabgrass; settings: 0.25 lb ai/acre
# Procedure: as §3, §4, §5, §6
# Kochia (Kochia scoparia) = assay: Example 4 post-emergence greenhouse pot test, kochia; settings: 0.25 lb ai/acre
# Procedure: as §3, §4, §5, §6
# [6] = tested on: Blackseed Plantain (Plantago rugelii); assay: Example 2 post-emergent turf plot test, plantain; settings: 0.57 lb ai/acre
# Procedure: as §1, with “quinclorac,” for “quniclorac,”, “one to three” for “1:3”
# as §7
# [7] = tested on: Ivyleaf Morningglory (Ipomoea hederacea); assay: Example 4 post-emergence greenhouse pot test, morningglory; settings: 0.25 lb ai/acre
# Procedure: as §3, §4, §5, §6
# [8] = tested on: Smooth Crabgrass (Digitaria ischaemum); assay: Example 2 post-emergent turf plot test, tillered crabgrass; settings: 0.57 lb ai/acre
# Procedure: as §1, with “quinclorac,” for “quniclorac,”, “one to three” for “1:3”
# as §7
structure (smiles),measurement,setting,value
"Cc1nn(-c2cc(NS(C)(=O)=O)c(Cl)cc2Cl)c(=O)n1C(F)F [A, N-[2,4-dichloro-5-[4-(difluoromethyl)-4,5-dihydro-3-methyl-5-oxo-1H-1,2,4-triazol-1-yl]phenyl]methanesulfonamide]",Percent Control,[1]; 7 DAT,50%
same,Percent Control,[1]; 14 DAT,75%
same,Percent Control,[1]; 21 DAT,89%
same,Percent Control,[1]; 28 DAT,91%
same,Percent Control,[2]; 7 DAT,70%
same,Percent Control,[2]; 14 DAT,78%
same,Percent Control,[2]; 21 DAT,86%
same,Percent Control,[2]; 28 DAT,75%
same,Percent Control,[2]; 41 DAT,71%
same,Percent Control,[3]; 2 DAT,25%
same,Percent Control,[3]; 7 DAT,60%
same,Percent Control,[3]; 14 DAT,85%
same,Percent Control,[3]; 20 DAT,95%
same,Percent Control,[4]; 7 DAT,45%
same,Percent Control,[4]; 14 DAT,74%
same,Percent Control,[4]; 21 DAT,68%
same,Percent Control,[5]; 7 DAT,64%
same,Percent Control,[5]; 14 DAT,75%
same,Percent Control,[5]; 21 DAT,76%
same,Percent Control,[5]; 28 DAT,70%
same,Percent Control,[5]; 41 DAT,75%
same,Percent Control,crabgrass (Digitaria sp); 2 DAT,10%
same,Percent Control,crabgrass (Digitaria sp); 7 DAT,10%
same,Percent Control,crabgrass (Digitaria sp); 14 DAT,5%
same,Percent Control,crabgrass (Digitaria sp); 20 DAT,5%
same,Percent Control,Kochia (Kochia scoparia); 2 DAT,10%
same,Percent Control,Kochia (Kochia scoparia); 7 DAT,70%
same,Percent Control,Kochia (Kochia scoparia); 14 DAT,95%
same,Percent Control,Kochia (Kochia scoparia); 20 DAT,99%
same,Percent Control,[6]; 7 DAT,100%
same,Percent Control,[6]; 14 DAT,100%
same,Percent Control,[6]; 21 DAT,100%
same,Percent Control,[7]; 2 DAT,60%
same,Percent Control,[7]; 7 DAT,80%
same,Percent Control,[7]; 14 DAT,90%
same,Percent Control,[7]; 20 DAT,99%
same,Percent Control,[8]; 7 DAT,34%
same,Percent Control,[8]; 14 DAT,36%
same,Percent Control,[8]; 21 DAT,52%
